“And” between values parts separate entries of the source, which are not always exact repeats. Equal values may be shown once.
Assays:
[1] = test system: Tuberous sclerosis complex model mice; assay: Test Example 5: number of epileptic seizures (intraperitoneal administration); type: in vivo; conditions: intraperitoneal 3 mg/kg/day once a day for 7 days; observed 2 minutes 5 times per day; n=6
Description: FIG. 3 is a graph showing results obtained by intraperitoneally administering sirolimus (3 mg/kg/day) or saline to model mice and control mice (normal mice) once a day for 7 days (n=6 in each group). Homo represents tuberous sclerosis complex model mice, and Ct represents control mice (normal mice). *P<0.05, **P<0.01
Sirolimus (3 mg/kg/day) or a placebo (saline) was intraperitoneally administered to model mice and normal mice similar to those in Test Example 1 once a day for 7 days. The number of seizures was measured by observing the mice for 2 minutes 5 times per day (n=6 in each group). […] The number of seizures over 7 days in the group intraperitoneally administered sirolimus was about 5, which was nearly equal to the number of seizures in the case where the 0.2 wt % sirolimus gel was administered to the forehead once a day at 5 mg (10 μg in terms of sirolimus).

[2] = Test Example 6: blood concentration after 7-day intraperitoneal administration; type: in vivo, mice (C57BL/6J); conditions: intraperitoneal 3 mg/kg/day for 7 days; 24 hours after the 7th administration; individual mice
Description: Sirolimus (3 mg/kg/day) or a placebo (saline) was intraperitoneally administered to mice (C57BL/6J, body weight: 20 g) once a day for 7 days. After 24 hours from the administration on the 7th day, blood was collected from each of the mice, and blood sirolimus concentration was measured.
(§1) The measurement of the blood concentration was performed by the same method as in Test Example 3. The blood concentration after the topical application to the skin was one 26th in terms of average value as compared to the blood concentration after systemic administration by the intraperitoneal administration. […] The action mechanism by which epileptic seizures are suppressed through systemic administration and the mechanism by which epileptic seizures are suppressed through topical application may differ from each other.

[3] = Test Example 6: blood concentration after 7-day topical application; type: in vivo, ICR mice; conditions: 0.2 wt % sirolimus gel 5 mg (10 μg sirolimus) on shaved forehead once a day, 7 days; 24 hours after last; individual mice
Description: ICR mice (body weight: about 37 g) were obtained (Japan SLC, Inc.). The 0.2 wt % sirolimus gel prepared in Production Example 3 or a placebo (only the base) was applied to their shaved forehead once a day at 5 mg each (10 μg in terms of sirolimus). After 24 hours from the administration on the 7th day, blood was collected from each of the mice, and blood sirolimus concentration was measured.
as §1

Question: Which results are given for `CO[C@H]1C[C@@H]2CC[C@@H](C)[C@@](O)(O2)C(=O)C(=O)N2CCCC[C@H]2C(=O)O[C@H]([C@H](C)C[C@@H]2CC[C@@H](O)[C@H](OC)C2)CC(=O)[C@H](C)/C=C(\C)[C@@H](O)[C@@H](OC)C(=O)[C@H](C)C[C@H](C)/C=C/C=C/C=C/1C` [Sirolimus, sirolimus]?
Answer: number of seizures over 7 days [1]: about 5; blood sirolimus concentration [2]: 94.43 ng/ml · blood and 85.59 ng/ml · blood and 48.55 ng/ml · blood and 216.83 ng/ml · blood; blood sirolimus concentration [3]: 3.87 ng/ml · blood and 2.85 ng/ml · blood and 5.98 ng/ml · blood

Source: patent US20240058365A1, “External Preparation for Treating Epilepsy or Autism Spectrum Disorder” (OSAKA UNIVERSITY, priority 2019, published 2024)
